Results: patent publication US7091351B2, “Vanadium compounds for treating cancer” (Parker Hughes Institute, priority 1998, dated 2006)
Like-named read-outs stand apart in the source and are kept apart here.

Experiments:
Type in all cases: cell-based, human
[1] = tested on: PC3 prostate cancer cells; test: Cytotoxic activity of oxovanadium(IV) compounds, PC3
Experimental: (§1) The cytotoxicity of oxovanadium (W) complexes listed in Table 6 were tested against 9 different human cancer cell lines was performed using the MTT (3-[4,5-dimethylthiazol-2-yl]-2,5-diphenyl tetrazolium bromide) assay (Boehringer Mannheim Corp., Indianapolis, Ind.) as described previously (20). Briefly, exponentially growing tumor cells were seeded into a 96-well plate at a density of 4×10^4cells/well and incubated with medium containing the oxovanadium(IV) compounds concentrations ranging from 0.1 to 250 μM for 48 hours at 37° C. in a humidified 5% CO2 atmosphere. Triplicate wells were used for each treatment. To each well, 10 μl of MTT (0.5 mg/ml final concentration) was added and the plates were incubated at 37° C. for 4 hours to allow MTT to form formazan crystals by reacting with metabolically active cells . The formazan crystals were solubilized overnight at 37° C. in a solution containing 10% SDS in 0.01 M HCl. The absorbence of each well was measured in a microplate reader (Labsystems) at 540 nm and a reference wavelength of 690 nm. To translate the OD540 values into the number of live cells in each well, the OD540 values were compared to those on standard OD540—versus—cell number curves generated for each cell line. The percent survival was calculated using the formula: % survival=Live cell number[test]/Live cell number [control]×100. The IC50 values were calculated by non-linear regression analysis using an Graphpad Prism software version 2.0 (Graphpad Software, Inc., San Diego, Calif.).

[2] = tested on: Tera-2 testicular cancer cells; test: Cytotoxic activity of oxovanadium(IV) compounds, TERA-2
Experimental: as §1

[3] = tested on: NTD1 testicular cancer cells; test: Cytotoxic activity of oxovanadium(IV) compounds, NTD1
Experimental: as §1

BT20 breast cancer cells = test: Cytotoxic activity of oxovanadium(IV) compounds, BT20
Experimental: as §1

[4] = tested on: 833-K testicular cancer cells; test: Cytotoxic activity of oxovanadium(IV) compounds, 833-K
Experimental: as §1

NALM-6 cells = test: MTT cytotoxicity assay of oxovanadium(IV) compounds, NALM-6; settings: 48 hr
Experimental: as §1

[5] = tested on: U266BL multiple myeloma cells; test: MTT cytotoxicity assay of oxovanadium(IV) compounds, U266BL; settings: 48 hr
Experimental: as §1

[6] = tested on: ARH77 multiple myeloma cells; test: MTT cytotoxicity assay of oxovanadium(IV) compounds, ARH77; settings: 48 hr
Experimental: as §1, with “Briefly, exponentially growing tumor cells were seeded into a 96-well plate at a density of 4×10^4cells/well and incubated with medium containing the oxovanadium(IV) compounds concentrations ranging from 0.1 to 250 μM for 48 hours at 37° C. in a humidified 5% CO2 atmosphere.” left out

[7] = tested on: HS445 Hodgkin's lymphoma cells; test: MTT cytotoxicity assay of oxovanadium(IV) compounds, HS445; settings: 48 hr
Experimental: as §1

MOLT-3 cells = test: MTT cytotoxicity assay of oxovanadium(IV) compounds, MOLT-3; settings: 48 hr
Experimental: as §1

[8] = tested on: HS-SULTAN multiple myeloma cells; test: MTT cytotoxicity assay of oxovanadium(IV) compounds, HS-SULTAN; settings: 48 hr
Experimental: as §1

HL-60 cells = test: MTT cytotoxicity assay of oxovanadium(IV) compounds, HL-60; settings: 48 hr
Experimental: as §1

U373 glioblastoma cells = test: Cytotoxic activity of oxovanadium(IV) compounds, U373
Experimental: as §1

[9] = tested on: 64cp5 testicular cancer cells; test: Cytotoxic activity of oxovanadium(IV) compounds, 64cp5
Experimental: as §1

[10] = read-out: Cytotoxic Activity PC3
[11] = read-out: Cytotoxic Activity TERA-2
[12] = read-out: Cytotoxic Activity NTD1
[13] = read-out: Cytotoxic Activity BT20
[14] = read-out: Cytotoxic Activity 833-K
[15] = read-out: Cytotoxic Activity U373
[16] = read-out: Cytotoxic Activity 64cp5

Compound | IC50 [1, 10] | IC50 [2, 11] | IC50 [3, 12] | IC50 (BT20 breast cancer cells; [13]) | IC50 [4, 14] | IC50 (NALM-6 cells) | IC50 [5] | IC50 [6] | IC50 [7] | IC50 (MOLT-3 cells) | IC50 [8] | IC50 (HL-60 cells) | IC50 (U373 glioblastoma cells; [15]) | IC50 [9, 16] | also measured
(diaqua)(5-nitro-1,10-phenanthroline)oxovanadium(IV) sulfate [Compound 32] | 12.9 µM | 7.2 µM | 20.2 µM | 13.7 µM | 11.5 µM | 4.1 ± 0.4 µM | 18.1 ± 5.1 µM | 5.4 ± 1.5 µM | 9.1 ± 2.5 µM | 2.3 ± 0.3 µM | 14.5 ± 2.5 µM | 4.9 ± 1.2 µM | 20.5 µM | 25.4 µM | –
(diaqua)(5-chloro-1,10-phenanthroline)oxovanadium(IV) sulfate [Compound 30] | 12.4 µM | 18.1 µM | > 100 µM | 18.2 µM | 12.8 µM | 3.6 ± 0.07 µM | 8.5 ± 1.2 µM | 30.3 ± 5.6 µM | 7.5 ± 2.5 µM | 3.4 ± 0.03 µM | 9.9 ± 5.4 µM | 15.3 ± 4.9 µM | 22.4 µM | 10.9 µM | –
bis(5-nitro-1,10-phenanthroline)sulfatooxovanadium(IV) [Compound 33] | 6.1 µM | 2.6 µM | 9.1 µM | 5.6 µM | 1.1 µM | 0.7 ± 0.01 µM | 7.2 ± 1.1 µM | 5.7 ± 1.3 µM | 2.3 ± 0.6 µM | 1.4 ± 0.06 µM | 13.8 ± 3.6 µM | 2.6 ± 0.4 µM | 7.2 µM | 5.9 µM | –
(diaqua) (1,10-phenanthroline)oxovanadium(IV) sulfate [Compound 26] | 11.2 µM | > 100 µM | > 100 µM | 6.6 µM | 12.8 µM | 3.4 ± 0.2 µM | 3.5 ± 0.5 µM | 15.6 ± 3.2 µM | 6.3 ± 1.8 µM | 2.7 ± 0.2 µM | 11.2 ± 2.2 µM | 3.2 ± 1.1 µM | 7.7 µM | 8.5 µM | –
bis(5-chloro-1,10-phenanthroline)sulfatooxovanadium(IV) [Compound 31] | 4.6 µM | 24.2 µM | 50.1 µM | 5.4 µM | 4.6 µM | 1.6 ± 0.03 µM | 3.7 ± 1.1 µM | – | 5.2 ± 1.1 µM | 2.1 ± 0.2 µM | 5.8 ± 0.6 µM | 5.3 ± 1.8 µM | 6.3 µM | > 100 µM | –
bis(2,2′-bipyrimidine)sulfatooxovanadium(IV) [Compound 39] | – | > 100 µM | > 100 µM | > 100 µM | > 100 µM | 12.2 ± 2.3 µM | 99.1 ± 8.1 µM | > 100 µM | 98.4 ± 9.1 µM | 35.1 ± 4.7 µM | > 100 µM | > 100 µM | > 100 µM | > 100 µM | –
bis(1,10-phenanthroline)sulfatooxovanadium(IV) [Compound 27] | 10.8 µM | 37.6 µM | > 100 µM | 7.2 µM | 7.5 µM | 0.97 ± 0.1 µM | 2.2 ± 0.6 µM | 3.3 ± 0.8 µM | 5.8 ± 1.2 µM | 1.4 ± 0.04 µM | 4.4 ± 0.8 µM | 4.6 ± 1.4 µM | 6.8 µM | 18.5 µM | –
(diaqua)(2,2′-bipyrimidine)oxovanadium(IV) sulfate [Compound 38] | – | 74.3 µM | > 100 µM | > 100 µM | > 100 µM | 12.1 ± 1.6 µM | 91.2 ± 9.9 µM | > 100 µM | 96.5 ± 8.6 µM | 27.7 ± 2.5 µM | > 100 µM | > 100 µM | > 100 µM | > 100 µM | –
CC(=O)c1cc(Br)ccc1[O][V](=[O])[O]c1ccc(Br)cc1C(C)=O [Compound 40, bis(5′-bromo-2′-hydroxyacetophenone)oxovanadium(IV)] | – | 35.4 µM | > 100 µM | > 100 µM | > 100 µM | 17.4 ± 0.9 µM | 98.1 ± 6.7 µM | > 100 µM | 96.5 ± 6.4 µM | 41.8 ± 3.9 µM | 78.4 ± 5.8 µM | > 100 µM | > 100 µM | > 100 µM | –
(diaqua)(4,4′-dimethyl-2,2′-bipyridyl)oxovanadium(IV) sulfate [Compound 36] | – | > 100 µM | > 100 µM | > 100 µM | > 100 µM | 8.5 ± 0.5 µM | 38.4 ± 3.2 µM | > 100 µM | 27.8 ± 3.4 µM | 8.2 ± 0.5 µM | 65.1 ± 6.1 µM | 38.6 ± 4.5 µM | > 100 µM | > 100 µM | –
bis(2,2′-bipyridyl)sulfatooxovanadium(IV) [Compound 35] | 56.2 µM | > 100 µM | > 100 µM | 70.8 µM | 96.2 µM | 15.5 ± 3.8 µM | 32.1 ± 5.2 µM | 26.8 ± 5.4 µM | 21.6 ± 4.3 µM | 14.2 ± 3.8 µM | 35.4 ± 3.3 µM | 31.4 ± 6.9 µM | > 100 µM | > 100 µM | –
bis(4,4′-dimethyl-2,2′-bipyridyl) sulfatooxovanadium(IV) [Compound 37] | – | > 100 µM | > 100 µM | 15.7 µM | 34.9 µM | 3.9 ± 0.3 µM | 13.3 ± 5.1 µM | 58.3 ± 6.8 µM | 12.6 ± 3.3 µM | 4.8 ± 0.3 µM | 11.4 ± 2.2 µM | 28.4 ± 3.8 µM | 25.6 µM | > 100 µM | –
(diaqua)(2,2′ bipyridyl)oxovanadium(IV) sulfate [Compound 34] | – | – | – | – | – | 14.9 ± 0.6 µM | 30.4 ± 7.8 µM | > 100 µM | 41.7 ± 5.4 µM | 13.1 ± 1.1 µM | 62.8 ± 2.3 µM | > 100 µM | – | – | IC50 [1]: 55.8 µM; IC50 [2]: > 100 µM; IC50 [3]: > 100 µM; IC50 (BT20 breast cancer cells): 51.2 µM; IC50 [4]: > 100 µM; IC50 (U373 glioblastoma cells): 58.4 µM; IC50 [9]: > 100 µM
